Paper PMC6727846 (Journal of medicinal chemistry, 2019)
Read-outs that look alike come from different tables or passages of the source.

Tests used:
[1] = test system: Plasmodium falciparum 3D7 (CQ-sensitive); test: In vitro antimalarial SYBR Green I fluorescence assay; assay type: cell-based; conditions: for effect of substitution on Pf 3D7 potency, in words: SAR statement in text
Pf plasmepsin II (PM-II) = Pf plasmepsin II (PM-II) (Plasmodium falciparum, UniProt Q8I6V3); test: biochemical
[2] = test system: Plasmodium falciparum Dd2 (multi-drug resistant); test: In vitro antimalarial SYBR Green I fluorescence assay; assay type: cell-based
Cytotoxicity selectivity = assay type: cell-based
PM-IX = biological target: T1, PM-IX (Plasmodium falciparum, UniProt Q8ILG2); assay type: cell-based; conditions: western blot, substrate processing; data not shown
T1 sequence (Q8ILG2 1-627): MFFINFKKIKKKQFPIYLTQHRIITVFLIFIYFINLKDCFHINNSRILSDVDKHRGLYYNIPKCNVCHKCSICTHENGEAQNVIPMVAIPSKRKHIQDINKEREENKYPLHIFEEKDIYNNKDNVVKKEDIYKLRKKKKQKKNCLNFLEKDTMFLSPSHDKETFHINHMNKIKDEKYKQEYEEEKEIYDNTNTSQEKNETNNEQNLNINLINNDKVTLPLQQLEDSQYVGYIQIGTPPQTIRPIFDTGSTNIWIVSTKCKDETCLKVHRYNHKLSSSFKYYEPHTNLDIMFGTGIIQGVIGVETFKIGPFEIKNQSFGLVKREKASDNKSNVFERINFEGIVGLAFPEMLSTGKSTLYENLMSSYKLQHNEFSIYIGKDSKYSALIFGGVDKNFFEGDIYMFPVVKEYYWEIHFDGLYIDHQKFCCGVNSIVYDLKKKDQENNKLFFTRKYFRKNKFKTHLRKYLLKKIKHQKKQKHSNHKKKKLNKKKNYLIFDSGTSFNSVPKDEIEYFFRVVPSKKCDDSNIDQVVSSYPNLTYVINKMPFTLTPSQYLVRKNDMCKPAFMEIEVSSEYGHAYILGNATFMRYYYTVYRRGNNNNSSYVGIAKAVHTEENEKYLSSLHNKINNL

[3] = Mouse liver microsome metabolic stability; conditions: in words
Pf PM-V = Pf PM-V (Plasmodium falciparum, UniProt Q8I6Z5); assay type: cell-based; conditions: knockdown assay; data not shown
Sequence of Pf PM-V (Q8I6Z5 whole entry): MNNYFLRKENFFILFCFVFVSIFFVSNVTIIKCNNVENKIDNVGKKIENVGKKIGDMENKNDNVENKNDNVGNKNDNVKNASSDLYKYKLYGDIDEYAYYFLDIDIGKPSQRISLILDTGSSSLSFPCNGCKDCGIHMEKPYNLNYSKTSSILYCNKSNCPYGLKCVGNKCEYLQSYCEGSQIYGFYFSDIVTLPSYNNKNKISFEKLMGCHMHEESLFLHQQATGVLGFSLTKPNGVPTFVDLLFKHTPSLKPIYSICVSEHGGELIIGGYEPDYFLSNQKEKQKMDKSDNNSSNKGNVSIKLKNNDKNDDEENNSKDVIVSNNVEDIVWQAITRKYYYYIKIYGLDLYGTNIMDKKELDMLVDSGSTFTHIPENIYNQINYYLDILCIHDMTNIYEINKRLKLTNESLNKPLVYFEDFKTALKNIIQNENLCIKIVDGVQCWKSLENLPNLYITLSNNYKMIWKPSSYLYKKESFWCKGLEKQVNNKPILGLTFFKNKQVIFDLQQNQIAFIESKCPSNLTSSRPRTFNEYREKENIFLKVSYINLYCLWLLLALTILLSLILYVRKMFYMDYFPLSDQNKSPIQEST

PM-X = PM-X (Plasmodium falciparum, UniProt Q8IAS0); assay type: cell-based; conditions: western blot, substrate processing; data not shown
Sequence of PM-X (Q8IAS0 222-573): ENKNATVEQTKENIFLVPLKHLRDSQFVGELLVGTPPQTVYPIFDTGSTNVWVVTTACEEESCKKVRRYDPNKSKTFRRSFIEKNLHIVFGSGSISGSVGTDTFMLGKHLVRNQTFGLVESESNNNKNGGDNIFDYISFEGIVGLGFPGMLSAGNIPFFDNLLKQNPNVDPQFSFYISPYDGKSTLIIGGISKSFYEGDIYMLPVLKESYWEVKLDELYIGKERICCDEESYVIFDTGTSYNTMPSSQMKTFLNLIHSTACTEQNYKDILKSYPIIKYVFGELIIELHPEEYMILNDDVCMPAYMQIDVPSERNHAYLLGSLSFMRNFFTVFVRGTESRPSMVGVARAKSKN

[4] = Plasmodium falciparum, 3D7, 72 h, read-out: Pf 3D7 IC50
[5] = Plasmodium falciparum, 3D7, read-out: Pf 3D7 IC50 (side-by-side with CQ)

Sequence of Pf plasmepsin II (PM-II) (Q8I6V3 125-453): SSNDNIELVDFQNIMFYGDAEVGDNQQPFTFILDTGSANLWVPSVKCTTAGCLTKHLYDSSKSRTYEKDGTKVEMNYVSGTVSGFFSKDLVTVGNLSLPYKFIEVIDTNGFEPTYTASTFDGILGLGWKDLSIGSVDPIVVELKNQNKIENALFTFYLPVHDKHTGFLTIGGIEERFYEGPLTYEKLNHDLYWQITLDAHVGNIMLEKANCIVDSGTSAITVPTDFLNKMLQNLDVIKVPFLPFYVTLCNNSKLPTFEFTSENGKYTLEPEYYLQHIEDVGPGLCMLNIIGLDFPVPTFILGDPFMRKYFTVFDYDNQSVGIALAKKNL

CN(C)c1ccc(CNC(=O)[C@@H]2CNC[C@H]2c2ccc(Oc3ccccc3)cc2)cc1 [compound 30]
effect of substitution on Pf 3D7 potency, in words [1]: tolerated | IC50 (Pf plasmepsin II (PM-II)): > 10000 nM

CN(C)c1ccc(CNC(=O)[C@H]2CNC[C@@H]2c2cnc(C(F)(F)F)nc2)cc1 [compound 35]
effect of substitution on Pf 3D7 potency, in words [1]: modest erosion of potency

C[C@H](NC(=O)[C@H]1CNC[C@@H]1c1ccc(C(F)(F)F)cc1)c1ccc(N(C)C)cc1 [54b, (+)-(3R,4S)-N-[(1S)-1-[4-(dimethylamino)phenyl]ethyl]-4-[4-(trifluoromethyl)phenyl]pyrrolidine-3-carboxamide]
IC50 [1, 4]: 51 nM | EC50 ([1]; Plasmodium falciparum, 3D7, read-out: EC50 against drug sensitive Plasmodium falciparum 3D7): 46 nM | IC50 [1, 5]: 46 ± 6 nM | EC50 ([2]; DD2, read-out: EC50 against drug resistant Dd2 strain): 21 nM

COc1ccc(CNC(=O)[C@@H]2CNC[C@H]2c2ccc(C(F)(F)F)cc2)cc1 (racemic) [compound 6]
selectivity ratio (Cytotoxicity selectivity): 100 | inhibition of PM-IX (PM-IX): inactive | metabolic stability profile in mouse liver microsomes [3]: improved | increase in potency relative to H (13) ([1]; Pf 3D7, amide benzyl ring SAR): 10 fold | IC50 [1, 4]: 385 nM | inhibition of Pf PM-V (Pf PM-V): inactive | inhibition of PM-X (PM-X): inactive

CN(C)c1ccc(CNC(=O)[C@H]2CNC[C@@H]2c2ccc(C(F)(F)F)nc2)cc1 (racemic) [compound 34]
IC50 [1, 4]: 230 nM | effect of substitution on Pf 3D7 potency, in words [1]: without loss in potency | IC50 (Pf plasmepsin II (PM-II)): > 10000 nM

CN(C)c1ccc(CNC(=O)[C@@H]2CNC[C@H]2c2ccc(C(F)(F)F)c(F)c2)cc1 [compound 24]
IC50 (Pf plasmepsin II (PM-II)): > 10000 nM

C[C@@H]1CC[C@H]2[C@@H](C)C(=O)O[C@@H]3O[C@@]4(C)CC[C@@H]1[C@]32OO4 [artemesinin, reference compound]
IC50 [1, 4]: 33 ± 0.6 nM

CCN(CC)CCCC(C)Nc1ccnc2cc(Cl)ccc12 (stereo not drawn) [chloroquine, reference compound]
IC50 [1, 4]: 54 ± 0.4 nM | IC50 [1, 5]: 38 ± 2 nM | IC50 ([2]; DD2, read-out: Pf Dd2 IC50 (side-by-side with CQ)): 196 ± 14 nM

C[C@@H](NC(=O)[C@H]1CNC[C@@H]1c1ccc(C(F)(F)F)nc1)c1ccc(N(C)C)cc1 [compound 55, (+)-(3R,4S)-N-[(1R)-1-[4-(dimethylamino)phenyl]ethyl]-4-[6-(trifluoromethyl)pyridin-3-yl]pyrrolidine-3-carboxamide]
reduction / loss in potency relative to parent analog ([1]; Pf 3D7, SAR comparison stated in text): > 30 fold

Cc1ccc(CNC(=O)[C@@H]2CNC[C@H]2c2ccc(C(F)(F)F)cc2)cc1 [compound 12]
IC50 (Pf plasmepsin II (PM-II)): > 10000 nM

CCN(CC)c1ccc(CNC(=O)[C@@H]2CNC[C@H]2c2ccc(C(F)(F)F)cc2)cc1 [compound 16]
IC50 (Pf plasmepsin II (PM-II)): > 10000 nM

CN(C)c1ccc(CNC(=O)[C@@H]2CNC[C@H]2c2ccc(C(F)(F)F)c(Cl)c2)cc1 [compound 26]
IC50 (Pf plasmepsin II (PM-II)): > 10000 nM

CN(C)c1ccc(CNC(=O)[C@H]2CNC[C@@H]2c2ccc(C(F)(F)F)cc2)cc1 [compound 14]
IC50 (Pf plasmepsin II (PM-II)): > 10000 nM
